Values quoted from earlier work, collected in patent US20130274214A1, “METHOD FOR TREATING BLEPHARITIS” (INSPIRE PHARMACEUTICALS, INC., priority 2010, published 2013).

Test system: meibomian gland secretions (meibum)
Settings: daily topical administration to the ocular surface; subjects with meibomian gland dysfunction

In the case of `CC[C@H]1OC(=O)[C@H](C)[C@@H](O[C@H]2C[C@@](C)(OC)[C@@H](O)[C@H](C)O2)[C@H](C)[C@@H](O[C@@H]2O[C@H](C)C[C@H](N(C)C)[C@H]2O)[C@](C)(O)C[C@@H](C)CN(C)[C@H](C)[C@@H](O)[C@]1(C)O` [azithromycin], the “physicochemical properties of the meibum” value is given as “improved the physicochemical properties of the meibum towards that of normal subjects”.
